# According to patent publication US9163003B2, “4-piperidinyl compounds for use as tankyrase inhibitors” (NOVARTIS AG, priority 2011, dated 2015):
# Read-outs that look alike come from different tables or passages of the source.
# Legend:
# [1] = molecular target: tankyrase 2 protein PARP domain, TNKS2P (GST-tagged) (Homo sapiens (Human), UniProt Q9H2K2); test: TNKS2 autoparsylation (AP) biochemical assay, LC/MS detection of nicotinamide; conditions: 20 nM enzyme, 250 μM NAD+, 60 min room temperature
# [2] = molecular target: human tankyrase 1 PARP catalytic domain, TNKS1P (GST-tagged) (Homo sapiens (Human), UniProt O95271); test: TNKS1 autoparsylation (AP) biochemical assay, LC/MS detection of nicotinamide; conditions: 20 nM enzyme, 250 μM NAD+, 60 min room temperature
# Experimental: The human tankyrase 1 PARP catalytic domain, TNKS1P, was cloned into a pDONR221 vector using the Invitrogen Gateway Technology. This entry clone was then subcloned into the destination vector pDEST20 to obtain the N-terminal Glutathione S-transferase (GST)-tagged fusion protein.
# The autoparsylation activity of the TNKS 1/2 or PARP1/2 enzymes was measured by the liquid chromatography-mass spectrometry (LC/MS) detection of nicotinamide as readout. Compound activity in inhibiting the TNKS and PARP autoparsylation was evaluated by IC50 measurements.
# [3] = tested on: Wnt ligand-induced signaling; test: Wnt-responsive Super-TOpFlash (STF) luciferase reporter gene assay in HEK293 cells; assay type: cell-based; conditions: Wnt3A condition medium induced
# Experimental: Compound activity in inhibiting Wnt ligand-induced signaling was measured using a Wnt-responsive Super-TOpFlash (STF) luciferase reporter gene assay in HEK293 cells. On day 1 of the assay, cells were plated at a density of 8000 cells per well of 384-well plate in 25 μl medium containing 5% fetal bovine serum (FBS). On the second day, […] condition medium (CM) produced from mouse L cells was added to the cells to induce Wnt signaling, followed by addition of 5 μL of compounds each well in 10-point serial dilution. On the third day, the luciferase activity was measured by the Bright-Glo™ Luciferase Assay System following manufacture's protocol (Promega, E2620). The Inhibition was calculated as: (Maximum Wnt-induced signaling−Sample)/(Maximum Wnt-induced signaling−Background)*100. “Maximum Wnt-induced signaling” is the STF signal level induced by 20% Wnt3A CM without compound; and “Background” is the STF signal level without the addition of Wnt3A CM or compound.
# Axin2 protein = test: Cellular ELISA assay for stabilizing the Axin2 protein in SW480 cells; assay type: cell-based; conditions: 24 hrs treatment, read-out: Axin AC50
# Experimental: Compound activity in stabilizing the Axin2 protein was measured by Sandwich Enzyme-Linked Immuosorbent (ELISA) assay in the colorectal cell line SW480. 30,000 SW480 cells were seeded per well in 96-well plate and incubated overnight prior to compound treatment. Cells were then treated with compounds in 6-point dilution starting at 10 μM for 24 hrs. Cells were then washed with 100 μL of cold Phosphate Buffer Saline (PBS), and lysed in 125 μl of cold 1× lysis buffer (Cell Signaling Technology, 9803) supplemented with Protease inhibitor (Roche, 11836170) and Phosphatase inhibitors (Sigma, P2850, P5726). For the ELISA assay, anti Axin-2 capture antibody (Strategic Diagnostics) antibody was diluted to a concentration of 1 μg/ml (1:1000) in Carbonate Coating buffer, pH 9.2 (Sigma, C3041-50CAP). 100μ of the diluted anti Axin-2 capture antibody per well was then used to coat the 96-well ELISA plate (Thermo Electron Corp., MicroLite 1 flat bottom plate #7571) overnight at 4° C. Plates were then washed three times with 300 μl/well of wash solution, PBST20 (PBS+0.05% Tween), and blocked with 300 μl/well 1% BSA/PBS (BSA, Millipore Probumin #82-045-1) for 1.5 hours at room temperature while shaking gently. After blocking, plates were then washed three times with 300 μl/well of wash solution. 100 μL of prepared SW480 cell lysate was then added to each well and incubated at room temperature for 2 hours while shaking gently. After washing, 100 μL of Biotinylated anti-Axin2 antibody (CST, 2151) was added to each well and incubated room temperature for 2 hours. 100 μL of Streptavidin-HRP (R&D systems, DY998) diluted 1:200 in 1% BSA/PBS was then added in each well and incubate for 30 mins at R/T in the dark. Signal was detected by Chemiluminescence (Pierce SuperSignal ELISA Femto #3704), and measured on PerkinElmer Wallac 1420 plate reader.
# [4] = tested on: Non-small lung cancer ABC-1 cells; test: Cellular proliferation assay, ABC-1 cells (CellTiter-Glo); assay type: cell-based; conditions: 3 days of compound treatment
# Experimental: Non-small lung cancer ABC-1 cells were plated at 5000 cells per well in 96-well plates and treated with 8 serial compound dilutions starting from 10 μM as the highest concentration. Viable cells were measured after 3 days of compound treatment using the CellTiter-Glo assay (Promega, G7570). Assay was performed following the manufacture protocol.
# Sequence of tankyrase 2 protein PARP domain, TNKS2P (GST-tagged) (Q9H2K2 959-1164): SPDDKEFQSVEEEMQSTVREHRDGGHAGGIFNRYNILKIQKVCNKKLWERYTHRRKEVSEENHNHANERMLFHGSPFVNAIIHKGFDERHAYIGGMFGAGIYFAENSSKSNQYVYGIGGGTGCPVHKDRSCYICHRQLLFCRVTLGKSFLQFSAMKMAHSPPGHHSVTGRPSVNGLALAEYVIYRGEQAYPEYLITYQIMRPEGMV
# Sequence of human tankyrase 1 PARP catalytic domain, TNKS1P (GST-tagged) (O95271 1112-1317): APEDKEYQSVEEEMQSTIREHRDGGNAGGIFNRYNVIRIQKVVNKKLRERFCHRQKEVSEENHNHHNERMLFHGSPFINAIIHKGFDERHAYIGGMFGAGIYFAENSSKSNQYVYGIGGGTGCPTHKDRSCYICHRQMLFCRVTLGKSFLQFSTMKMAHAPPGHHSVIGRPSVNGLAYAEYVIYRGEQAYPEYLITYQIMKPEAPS
SMILES,IC50 [1] [nM],IC50 [2] [nM],IC50 ([3]; Homo sapiens) [nM],AC50 (Axin2 protein; Homo sapiens) [nM],"IC50 ([4]; Homo sapiens, 72 h) [nM]",IC50 [3] [nM],AC50 (Axin2 protein) [nM],IC50 [4] [nM]
"COc1ccc(C(=O)C2CCN(C3CCN(Cc4cccc(Cl)c4C#N)C3=O)CC2)cc1 (stereo not shown) [Example 1, 2-Chloro-6-{3-[4-(4-methoxy-benzoyl)-piperidin-1-yl]-2-oxo-pyrrolidin-1-ylmethyl}-benzonitrile]",81 ± 1,162 ± 4,99 ± 11,239 ± 31,408,–,–,–
"COc1ccc(C(=O)C2CCN([C@@H]3CCN(Cc4nc5c(c(=O)[nH]4)COCC5)C3=O)CC2)cc1 [Example 4, 2-{(R)-3-[4-(4-Methoxy-benzoyl)-piperidin-1-yl]-2-oxo-pyrrolidin-1-ylmethyl}-3,5,7,8-tetrahydro-pyrano[4,3-d]pyrimidin-4-one]",600 ± 330,1600 ± 1200,95 ± 11,310 ± 270,1020 ± 340,–,–,–
"COc1ccc(C(=O)C2CCN(C3CCN(Cc4ccc(Cl)c(C#N)c4)C3=O)CC2)cc1 (stereo not shown) [Example 5, 2-Chloro-5-((3-(4-(4-methoxybenzoyl)piperidin-1-yl)-2-oxopyrrolidin-1-yl)methyl)benzonitrile]",15 ± 1,36 ± 1,17 ± 3,66 ± 1,156,–,–,–
COc1ccc(C(=O)C2CCN(C3CCN(Cc4nc5ccsc5c(=O)[nH]4)C3=O)CC2)cc1 (stereo not shown) [Example 7],83 ± 5,211 ± 63,54 ± 12,451 ± 68,1470,–,–,–
COc1ccc(C(=O)C2CCN(C3CCN(Cc4nc5sc(C)cc5c(=O)[nH]4)C3=O)CC2)cc1 (stereo not shown) [Example 8],141 ± 40,96 ± 28,18 ± 4,78 ± 13,133,–,–,–
"O=C(c1ccc(F)cc1)C1CCN([C@@H]2CCN(Cc3nc4c(c(=O)[nH]3)COCC4)C2=O)CC1 [Example 12, 2-{(R)-3-[4-(4-Fluoro-benzoyl)-piperidin-1-yl]-2-oxo-pyrrolidin-1-ylmethyl}-3,5,7,8-tetrahydro-pyrano[4,3-d]pyrimidin-4-one]",2120 ± 50,5340 ± 340,620 ± 90,> 10000,> 10000,–,–,–
"COc1ccc(C(=O)C2CCN([C@@H]3CCN(Cc4nc5c(c(=O)[nH]4)COCC5)C3=O)CC2)cc1C [Example 14, 2-{(R)-3-[4-(4-Methoxy-3-methyl-benzoyl)-piperidin-1-yl]-2-oxo-pyrrolidin-1-ylmethyl}-3,5,7,8-tetrahydro-pyrano[4,3-d]pyrimidin-4-one]",206 ± 20,711 ± 20,31 ± 3,128 ± 130,149,–,–,–
"COc1ccc2c(c1)CC1(CCN(C3CCN(Cc4nc5c(c(=O)[nH]4)COCC5)C3=O)CC1)C2=O (stereo not shown) [Example 15, 2-((3-(5-methoxy-1-oxo-1,3-dihydrospiro[indene-2,4′-piperidine]-1′-yl)-2-oxopyrrolidin-1-yl)methyl)-7,8-dihydro-3H-pyrano[4,3-d]pyrimidin-4(5H)-one]",–,33 ± 2,< 0.5,16 ± 1,43,–,–,–
COc1ccc2c(c1)CC1(CCN([C@H]3CCN(Cc4nc5c(c(=O)[nH]4)COCC5)C3=O)CC1)C2=O [Example 16],–,12 ± 1,–,–,–,1.7 ± 0.2,7 ± 1,82
COc1ccc2c(c1)CC1(CCN([C@@H]3CCN(Cc4nc5c(c(=O)[nH]4)COCC5)C3=O)CC1)C2=O [Example 17],–,3850 ± 480,–,–,–,396 ± 10,1790 ± 140,2000 ± 900
"COc1ccc(C(=O)C2CCN(C3CCCN(Cc4nc5c(c(=O)[nH]4)COCC5)C3=O)CC2)cc1 (stereo not shown) [Example 18, 2-[4-(4-Methoxy-benzoyl)-2′-oxo-[1,3′]bipiperidinyl-1′-ylmethyl]-3,5,7,8-tetrahydro-pyrano[4,3-d]pyrimidin-4-one]",15 ± 1,46 ± 1,5.6 ± 0.7,51 ± 7,99,–,–,–
"COc1ccc(C(=O)C2CCN(C3CCN(Cc4nccc(=O)[nH]4)C3=O)CC2)cc1 (stereo not shown) [Example 22, 2-{3-[4-(4-Methoxy-benzoyl)-piperidin-1-yl]-2-oxo-pyrrolidin-1-ylmethyl}-3H-pyrimidin-4-one]",764 ± 56,1500 ± 120,390 ± 190,–,–,–,–,–
"COc1ccc(C(=O)C2CCN(C3CCN(Cc4nc(C)cc(=O)[nH]4)C3=O)CC2)cc1 (stereo not shown) [Example 23, 2-{3-[4-(4-Methoxy-benzoyl)-piperidin-1-yl]-2-oxo-pyrrolidin-1-ylmethyl}-6-methyl-3H-pyrimidin-4-one]",137 ± 22,286 ± 5,56 ± 33,227 ± 25,489,–,–,–
"COc1ccc(C(=O)C2CCN(C3CCN(Cc4nc5ccccc(=O)c5[nH]4)C3=O)CC2)cc1 (stereo not shown) [Example 27, 2-((3-(4-(4-methoxybenzoyl)piperidin-1-yl)-2-oxopyrrolidin-1-yl)methyl)cyclohepta[d]imidazol-4(3H)-one]",–,36 ± 3,0.4 ± 0.3,3.2 ± 0.1,1.5,–,–,–
"COc1ccc(C(=O)C2CCN([C@@H]3CCN(Cc4nc5ccccc(=O)c5[nH]4)C3=O)CC2)cc1C [Example 29, 2-{(R)-3-[4-(4-Methoxy-3-methyl-benzoyl)-piperidin-1-yl]-2-oxo-pyrrolidin-1-ylmethyl}-3H-cycloheptaimidazol-4-one]",112,278 ± 50,14 ± 4,9 ± 1,10,–,–,–
"COc1ccc(C(=O)C2CCN([C@H]3CCN(Cc4nc5ccccc(=O)c5[nH]4)C3=O)CC2)cc1 [Example 30, 2-{(S)-3-[4-(4-Methoxy-benzoyl)-piperidin-1-yl]-2-oxo-pyrrolidin-1-ylmethyl}-3H-cycloheptaimidazol-4-one]",–,9.5 ± 0.7,1.1 ± 0.1,0.6 ± 0.1,0.86 ± 0.1,–,–,–
COc1ccc(C(=O)C2CCN([C@H]3CCN(CC(=O)Nc4nnc5n4CCS5)C3=O)CC2)cc1 [Example 33],–,830 ± 20,–,–,–,–,1340 ± 110,1610
"COc1ccc(C(=O)C2CCN(C3CCN(CC(=O)Nc4nnnn4C)C3=O)CC2)cc1 (stereo not shown) [Example 36, 2-(3-(4-(4-methoxybenzoyl)piperidin-1-yl)-2-oxopyrrolidin-1-yl)-N-(1-methyl-1H-tetrazol-5-yl)acetamide]",1480 ± 20,3080 ± 230,7600 ± 800,–,> 10000,–,–,–
"COc1ccc(C(=O)C2CCN(C3CCN(CC(=O)Nc4nncc5c4CCCO5)C3=O)CC2)cc1 (stereo not shown) [Example 37, N-(3,4-dihydro-2H-pyrano[2,3-d]pyridazin-5-yl)-2-(3-(4-(4-methoxybenzoyl)piperidin-1-yl)-2-oxopyrrolidin-1-yl)acetamide]",970 ± 60,3010 ± 60,396 ± 26,–,2230,–,–,–
"COc1ccc(C(=O)C2CCN(C3CCN(CC(=O)Nc4noc5ncccc45)C3=O)CC2)cc1 (stereo not shown) [Example 38, N-(isoxazolo[5,4-b]pyridin-3-yl)-2-(3-(4-(4-methoxybenzoyl)piperidin-1-yl)-2-oxopyrrolidin-1-yl)acetamide]",4560 ± 40,6500 ± 800,2030 ± 180,–,7900,–,–,–
